Tested on: filamentous actin (F-actin)
Test: F-actin content of MDA-MB-468 cells (AlexaFluor 488 phalloidin fluorescent microscopy)
Assay type: cell-based, human
Conditions: peptide 100 μM; 18 h; compared to untreated cells
Experimental: MDA-MB-468 cells were detached from the tissue culture dishes by incubation with Versene for 10 min at 37° C., washed, re-suspended as single cells in serum-free DMEM medium supplemented with 0.5% BSA with or without peptide 175 (100 μM), and plated on a cover glass, pre-coated with 10 µg/ml collagen-I, in a cell culture dish. These experiments were terminated after 18 h by fixing the cells with 4% paraformaldehyde for 10 min at 4° C.
The cells were then permeabilized by incubation with 0.5% Trition X-100 for 5 min and blocked by incubation with a 3% BSA solution supplemented with 0.3% Triton X-100 for 45 min. The staining of the cells was performed in the dark by incubation for 40 min with AlexaFluor® 488 phalloidin (Molecular Probes, Eugene, Oreg.) at a dilution of 1:500 and in the presence of 1% BSA. Thereafter the cells were extensively washed and finally mounted with Dako Cytomation fluorescent mounting medium. The samples were examined and photographed in a Nikon Eclipse 800 microscope using a 60× oil immersion objective.
Peptide-induced effects on MDA-MB-468 tumour cell migration and their content of F-actin. (A) The cells were allowed to migrate for 18 h in the absence or presence of the indicated peptides (100 μM) The data in panel A are expressed as means±SEM of 8 separate experiments, each performed in triplicate. * p<0.05. […]

Sequence: NKTSEGMDGCEL (Human) [peptide 175, Wnt-5a aa 311-322]
- cellular content of filamentous actin (F-actin): significantly higher cellular content of filamentous actin

Reference: patent US20080207521A1, “PEPTIDE LIGAND TO IMPAIR CANCER CELL MIGRATION” (priority 2005, published 2008)
